Test results: US20090203636A1, “Prevention and Treatment of Cancer and Other Diseases” (priority 2006, published 2009)
Where “and” joins values, the source holds several entries; their conditions need not be identical. Equal values may be shown once.

Tests used:
[1] = test system: U-2 OS cells; experiment: Telomere length (flow cytometry, PNA probe), cell cycle distribution (PI), apoptosis and TRAP status in U-2 OS cells; type: cell-based, human
Procedure: (§1) The ALT cell lines were treated with therapeutic concentrations of AZT, to determine if slippage telomeric DNA synthesis could be inhibited by AZT-TP, and thereby induce telomere shortening. Telomere length in AZT treated and untreated cell lines was measured by flow cytometry with a telomere specific peptide nucleic acid (PNA) probe. To determine cell cycle distribution, cells were stained with propidium iodide (PI).
Rate of DNA synthesis was determined by incorporation of 5-bromodeoxyuridine (BdU). […] It is important to note that changes in cell cycle distribution, DNA synthesis and telomere length were rapid and could be detected after only 10 days of AZT treatment.
Telomere length in untreated and GCV treated cells was measured by flow cytometry with a telomere-specific PNA probe as described above.
To determine cell cycle distribution, cells were stained with propidium iodide (PI).
(§2) Both telomerase positive (Hela) telomerase negative (U-2 OS) cell lines were used. Appropriate assays were performed to detect and confirm telomerase/L1RT specific activity in these cells.
(§3) The U-2 OS (osteosarcoma) and HeLa (uterine cervix) cell lines used in this study were obtained from American Type Culture Collection (Rockville, Md.). Cells were cultured in D-MEM media supplemented with 10% fetal calf serum at 37° C. in a humidified atmosphere of 5% CO2. For treatment of the cells with ACV, the media was supplemented with 3 μM of acyclovir (acyclovir, TEVA Pharm. Ind. Ltd, Israel). For treatment of the cells with GCV, the media was supplemented with 1.5 μM of GCV (Cymevene, Hoffman-La Roche). For treatment of the cells with PCV, the media was supplemented with 1.5 μM of PCV (penciclovir, Merck & Co.).
(§4) Real time TRAP assay was performed as described (Wege et al., SYBR Green real-time telomeric repeat amplification protocol for the rapid quantification of telomerase activity. Nucleic Acids Res. 2003; 31(2):E3-3). For telomere length measurement by flow cytometry, cells were stained with telomere specific FITC conjugated (C3TA2)3 PNA (Applied Biosystems) probe and contrastained with 0.06 μg/ml PI as described by Rufer, N., Dragowska, W., Thornbury G., Roosnek, E., Lansdorp P. M. Telomere length dynamics in human lymphocyte subpopulations […]. Nat. Biotechnol. 16, 743-747 (1998)).
(a) In vitro arrays: U-2 OS cells were incubated with 0.2 μM of AZT for 22 days. Actively growing clones were analyzed by flow-FISH with telomere specific PNA probe, and in real time TRAP assay using HeLa cells as positive control. Isolated actively growing clones were different from parental cells in DNA content and telomere length.
(§5) Telomere length in SN 1 or SN 2 treated and untreated cell lines was measured by flow cytometry with a telomere—specific peptide nucleic acid PNA) probe. To determine cell cycle distribution, cells were stained with propidium iodide (PI).
(§6) The U-2 OS (osteosarcoma) and Hela (uterine cervix) cell lines used in this study were obtained from American Type Culture Collection (Rockville, Md.). Cells were cultured in D-MEM media supplemented with 10% fetal calf serum at 37° C. in a humidified atmosphere of 5% CO2. For treatment of the cells with SN 1 or SN 2, the media was supplemented with 1.5 μM of SN1 or SN2.
(§7) For telomere length measurement by flow cytometry, cells were stained with telomere specific FITC conjugated (C3TA2)3 PNA (Applied Biosystems) probe and contra-stained with 0.06 μg/ml PI as described by Rufer, N., Dragowska, W., Thornbury G., Roosnek, E., Lansdorp P. M. Telomere length dynamics in human lymphocyte subpopulations […]. Nat. Biotechnol. 16, 743-747 (1998)).

[2] = test system: HeLa cells; experiment: Telomere length (flow cytometry, PNA probe), cell cycle distribution (PI) and apoptosis in HeLa cells; type: cell-based, human
Procedure: as §1
(§8) The origin of the cell lines are uterine cervix (HeLa) and epithelial ovarian (NuTu-19). Cells were cultured in D-MEM media supplemented with 10% fetal calf serum at 37° C. in a humidified atmosphere of 5% CO2. For treatment of the cells with GCV, the media was supplemented with 1.5 μM of GCV (Cymevene, Hoffman-La Roche). For treatment of the cells with ACV, the media was supplemented with 3 μM of Acyclovir (Acyclovir, TEVA Pharm. Ind. Id. Israel).
as §4, §2, §3, §5, §6, §7

[3] = test system: Saos-2 osteosarcoma cells; conditions: therapeutic concentrations, 14 days; reported in WO 2005/069880; cited from earlier work
[4] = test system: U-2 OS/RAS cells; experiment: Prevention and treatment of telomerase negative (ALT) tumors in nude mice injected s.c. with U-2 OS/RAS cells; type: in vivo
Procedure: (a) Nude mice injected with U-2 OS/RAS cells: Crl1:CD1-/nu mice were purchased from Charles River Laboratories, Charles River Deutschland GmbH (Dec. 23, 2004). A total of 12 Nude mice were injected s.c. with 6×10^5 U-2 OS/RAS cells. These mice were divided into experimental and control groups.
The experimental group of mice started to receive AZT in drinking water (1 mg/ml) from the day one. In the control group, mice developed tumors (in N1 by the 26th day; in N2 by the […] and in N3 by the 41st day following the tumor cell injection).
All mice without tumors were sacrificed. One mouse from control group that developed tumors first was sacrificed on the 51 day following the tumor cell injection. Tumor tissue was mechanically separated to raise cell suspension. About 20 million of cells were seeded in McCoy's 5 A media supplemented with 10% FCS. The tissue cultured cells were used for further analysis.
Two mice from control group with tumors started to receive AZT in drinking water (1 mg/ml) from day 52. One mouse had died on day 80. Second was sacrificed on day 110 following the tumor cell injection. Tumor tissue was collected and stored at −80° C. for further analysis.

[5] = test system: Saos-2 osteosarcoma cells; experiment: Telomere length (flow cytometry, PNA probe), cell cycle distribution (PI) and apoptosis in Saos-2 cells; type: cell-based, human; conditions: therapeutic concentrations of AZT, 14 days
Procedure: as §1

[6] = test system: NuTu-19 cells; experiment: Telomere length (flow cytometry, PNA probe), cell cycle distribution (PI) and apoptosis in NuTu-19 cells; type: cell-based; conditions: AZT even at elevated concentrations e.g., 100 μM
Procedure: as §8, §4

[7] = test system: U-2 OS cells; conditions: therapeutic concentrations, 14 days; reported in WO 2005/069880; cited from earlier work
[8] = test system: HeLa cells; type: in vivo
Procedure: For in vivo assay, appropriate host, e.g., nude (nu/nu) mice of about 5-7 weeks old are obtained and maintained in pathogen-free conditions. Approximately, 1×10^6 HeLa cells (and/or U-2 OS cells) contained in 200 μl of serum-free media are delivered to all animals, briefly anaesthetize with Metofane, by subcutaneous (s.c.) injection in flank. Then the mice are divided into experimental group and control group. Appropriate concentrations of compounds of the formulas (I) to (VI), ACV, PCV and/or GCV are used for tumor growth progression or regression assays.
In one embodiment, impairment of s.c. tumor growth or time to progression rather than decrease in size of an established tumor (regression) is assessed. In this embodiment, starting from the day zero, mice in the experimental group receive GCV in drinking water ad libitum. Concentration of GCV in water can be 2 mg/ml. Fresh solution of GCV is supplied every 3 days. Mice in the control group receive only drinking water. Tumors are measured every 2-3 days. Mice are sacrificed when tumors exceed 1 cm^3. Tumor volume is calculated with formula 4/3πr^3, where r is the radius of the tumor.
Experimental group received valganciclovir in drinking water from day 0. Human cancer HeLa cell culture was purchased from ATCC. In all, 12 CD1/-nu and 12 NMRiI/-nu nude mice were purchased from Charles River Laboratories, Charles River Deutschland GmbH. These nude mice were injected s.c. with 3×10^5 Hela cells. Mice in the experimental groups (6 mice per strain) were exposed to Valcyte® (val-ganciclovir) in drinking water (1 mg/ml) from day 0.
(a) In vivo assays using Valganciclovir and zidovudine (AZT) combination: Human cancer HeLa cell culture was purchased from ATCC. A total of 24 CD1/-nu nude mice were purchased from Charles River laboratories, Charles River Deutschland GmbH. These mice were injected s.c. with 1×10^5 HeLa cells. The tumor volumes were determined by measurement of maximal and minimal diameters of the tumor. The calculations were conducted using the formula V=4/3 πRmax×Rmin^2, where Rmax−½ of maximal diameter of the tumor, and Rmin−½ of minimal diameter of the tumor. nude mice were injected s.c. with 1×10^5 Hela cells.
Of the 12 treated mice, after 20 days of double cocktail treatment, six mice were administered with a triple cocktail (Valcyte®+Retrovir®+ddI at the dose of 1 mg/ml each in drinking water for a further period 21 days (see Example 7 below) and only six mice continued to receive the double cocktail for another 21 days at which time tumor measurements were taken for all mice injected with HeLa cells. Of the remaining 12 mice injected with HeLa cells but untreated with any cocktail or anticancer agent thus far, six were maintained as controls for the rest of the duration of the experiment. The other six were treated with Xeloda® 67 days after the injection of HeLa cells (see Example 7 below).
As mentioned in Example 5 above, a total of six mice, after 20 days of double cocktail treatment, were administered with a triple cocktail (Valcyte®+Retrovir®+ddI at the dose of 1 mg/ml each in drinking water) for a further period 21 days. After 14 days of triple cocktail treatment, Xeloda® at a concentration 1 mg/ml was added to the triple cocktail. Six mice previously untreated with any drug for 67 days after the injection of HeLa cells were treated with Xeloda® at a concentration 1 mg/ml in drinking water. Tumor measurements were taken in all mice 75 days following the injection of HeLa cells.

[9] = test system: inoperable carcinoma of stomach; type: in vivo, human; conditions: one patient
Procedure: (a) Background therapy: 1 tablet of Retrovir® (AZT) 300 mg and 1 tablet of Zovirax™ (acyclovir, Glaxo Welcome), 400 mg/Valcyte® (valganciclovir) 450 mg/Valtrex® (Val-ACV) 500 mg all BID. Different acyclic nucleoside analogs were used during the 83 days of background therapy for reasons related to market availability.

[10] = test system: MH22A cells; experiment: MH22a hepatoma tumors in C3HA mice, Cocktails 1-6 followed by added Xeloda (Example 10c, second experiment); type: in vivo, C3HA inbred mice
Procedure: In Vivo assays using the compounds of the formulas (I) to (IV) and valine esters of formulas I and II each in a triple cocktail with other nucleoside analogs and tumor in combination with AZT and ddI were carried out as follows:
8-10 weeks old male C3HA inbred mice (immunocometent mice) were purchased from Laboratory Animals Breeding Facility of Russian Academy of Medical Science (Rappalovo, Leningrad region). 3×10^5 MH22a cells were injected s.c. into back flank of 200 mice. Ten days after the injections, mice bearing developing tumors (14.15 mm^3) (the tumor volume calculated using the formula π/6 DmaxDmin^2) were selected and randomly divided into different experimental groups as set forth below:
Cocktail 1—Valacyclovir (0.166 mg/ml)+AZT (0.1 mg/ml)+ddI (0.066 mg/ml)−40 mice;
Cocktail 2—SN-1 (1 mg/ml)+AZT (0.1 mg/ml)+ddI (0.066 mg/ml)−10 mice;
Cocktail 3—SN-3 (1 mg/ml)+AZT (0.1 mg/ml)+ddI (0.066 mg/ml)−10 mice;
Cocktail 4—SN4 (1 mg/ml)+AZT (0.1 mg/ml)+ddI (0.066 mg/ml)−10 mice;
cocktail 5—Val-SN-1 (0.166 mg/ml)+AZT (0.1 mg/ml)+ddI (0.066 mg/ml)−20 mice; and
Cocktail 6—Val-SN-2 (0.166 mg/ml)+AZT (0.1 mg/ml)+ddI (0.066 mg/ml)−20 mice; and
Control group—Capecitabine (Xeloda®) (1 mg/ml) in drinking water-mice.
Valacyclovir (Valtrex® manufactured by GlaxoSmithKline) is a prodrug of acyclovir, which is an acyclic nucleoside analog. Didanosine (ddI) and AZT are non-acyclic-nucleoside analogs. The drugs, at the concentrations indicated above, were administered to the mice in drinking water. Two weeks following the cocktail treatments Xeloda® (1 mg/ml) was added to each of the cocktails and continued for the remaining experimental period. In the control group, mice were treated only with Xeloda® (1 mg/ml) in drinking water and this treatment started at the same time as the Xeloda® treatments in the cocktail groups. […] Tumor volumes (mm^3) in each injected mice were calculated, using the formula π/6 DmaxDmin^2, every week for four consecutive weeks following the commencement of the treatment with the drugs.

[11] = Xeloda 1 mg/ml added to cocktails after two weeks

Compound | telomerase status (real time TRAP assay) of actively growing clones ([1]; 0.2 μM of AZT for 22 days) | telomere length and rate of DNA synthesis (BdU incorporation) ([1]; AZT for different amounts of time) | telomere length, apoptosis and cell cycle distribution ([1]; therapeutic concentrations of AZT, 14 days) | telomere length or cell cycle distribution ([2]; AZT at the chosen concentration, same conditions as ALT cells) | telomere length or cell cycle distribution ([2]; AZT even at elevated concentrations e.g., 100 μM) | telomere length, cell cycle and apoptosis [3] | growth of established ALT tumors ([4]; AZT in drinking water (1 mg/ml) from day 52) | tumor development ([4]; AZT in drinking water (1 mg/ml) from day one, three of six control mice developed tumors) | telomere length, apoptosis and cell cycle distribution [5] | telomere length or cell cycle distribution [6] | telomere length, cell cycle and apoptosis [7] | average size of tumors less compared to the untreated control group ([8]; Xeloda 1 mg/ml in drinking water from day 67) [%] | survival ([8]; drugs 1 mg/ml each in drinking water, 75 days following injection of HeLa cells) [%] | Tumor Volume (mm^3) in nude mice 75 days following the injection of HeLa cells ([8]; mean value of 4 mice) | toxicity in the patient [9] | Number tumor-free ([10]; 4 weeks of treatment, Xeloda 1 mg/ml added to cocktails after two weeks) | Number died during the 4 week treatment period [10, 11] | Number showing tumors after four weeks of treatment [10, 11] | Tumor volume at the end of the experimental period ([10]; individual tumor-bearing mice, formula π/6 DmaxDmin^2)
Cc1cn([C@H]2C[C@H](N=[N+]=[N-])[C@@H](CO)O2)c(=O)[nH]c1=O [AZT, azido-2′,3′-dideoxythymidine] | positive for telomerase | progressive telomere shortening and decrease in DNA synthesis | telomere shortening, massive apoptosis and G2 arrest | no effect on telomere length or cell cycle distribution | no effect on telomere length or cell cycle distribution | telomere shortening, G2 arrest and massive apoptosis | slowing of tumor growth | No one mice from AZT treated group had developed tumors | telomere shortening, massive apoptosis and G2 arrest | no effect on telomere length or cell cycle distribution | telomere shortening, G2 arrest and massive apoptosis |  |  |  |  |  |  |  | 
CCCCCOC(=O)Nc1nc(=O)n([C@@H]2O[C@H](C)[C@@H](O)[C@H]2O)cc1F [Xeloda®] |  |  |  |  |  |  |  |  |  |  |  | 17 | 66 | 1811.0 (mean value) mm^3 | caused toxicity in the patient | 0 | 2 | 6 | 6288 mm^3 (2×) and 10480 mm^3 and 1152 mm^3 and 2146 mm^3 and 4192 mm^3
